According to the supplement of paper PMC6335503:

How the values were obtained:
Assay in all cases: cell viability, percent of DMSO control (CellTiter-Glo); higher = more viable cells
Conditions in all cases: 72 h
[1] = tested on: DFTD cell line T1 (06/2887)
Method: (§1)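 Eight-point dose titration of 41 screen hits in triplicate wells on four Tasmanian devil DFTD tumour cell lines (T1-T4) and devil fibroblasts, 384-well plates. Viability was read by CellTiter-Glo (ATP) after 72 h at 37 °C. Percent of control per plate: DMSO wells = 100%, positive-control wells = 0%.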

[2] = tested on: DFTD cell line T2 (05/2569)
Method: as §1

[3] = tested on: DFTD cell line T3 (06/0368)
Method: as §1

[4] = tested on: DFTD cell line T4 (07/0192)
Method: as §1

Cc1sc2c(c1C)C(c1ccc(Cl)cc1)=N[C@@H](CC(=O)Nc1ccc(O)cc1)c1nnc(C)n1-2 [OTX015]
cell viability [%]
Conditions	0.0123 µM	0.037 µM	0.111111111 µM	0.333333 µM	1 µM	3 µM	9 µM	27 µM
[1]	103	100	74.2	59.1	31.2	36	30.2	36.9
[2]	105	128	97.9	104	70.1	44.1	36.1	45.3
[3]	104	120	84.2	79.8	57.3	50.5	46.8	54.8
[4]	93.3	85.1	69.9	72.7	51.1	55.9	47.1	56.2

COc1cccc2c1C(=O)c1c(O)c3c(c(O)c1C2=O)C[C@@](O)(C(=O)CO)C[C@@H]3O[C@H]1C[C@H](N)[C@H](O)[C@H](C)O1 [Doxorubicin]
cell viability [%]
Conditions	0.00617 µM	0.0185 µM	0.0556 µM	0.166667 µM	0.5 µM	1.5 µM	4.5 µM	13.5 µM
[1]	109	105	104	85.8	61.2	2.77	-6.73	-3.65
[2]	108	98.7	96.5	88.7	64.5	13.4	-8.33	-4.69
[3]	112	96.6	98.6	77	66.5	21.6	-3.26	4.78
[4]	104	106	96.8	84.9	53.4	2.44	-5.87	-5.47

CS(=O)(=O)CCNCc1ccc(-c2ccc3ncnc(Nc4ccc(OCc5cccc(F)c5)c(Cl)c4)c3c2)o1 [Lapatinib]
cell viability [%]
Conditions	0.0123 µM	0.037 µM	0.111111111 µM	0.333333 µM	1 µM	3 µM	9 µM	27 µM
[1]	87.5	112	87.1	42.6	30.1	28.2	21.2	12.5
[2]	78.4	133	100	68.6	40.4	44.6	21.6	8.25
[3]	80.9	110	84.9	70.4	42.1	44.9	31.7	5.72
[4]	81.5	113	84.5	53	32	29.4	20.7	16.9

CS(=O)(=O)CCNCc1ccc(-c2ccc3ncnc(Nc4ccc(OCc5cccc(F)c5)c(Cl)c4)c3c2)o1.Cc1ccc(S(=O)(=O)O)cc1
cell viability [%]
Conditions	0.00617 µM	0.0185 µM	0.0556 µM	0.166667 µM	0.5 µM	1.5 µM	4.5 µM	13.5 µM
[1]	127	119	87.5	102	46.3	28.1	24	31.8
[2]	109	114	98.2	117	83.3	44.3	35.8	32.3
[3]	96	105	99.2	97.4	63	54.1	42.2	40.8
[4]	102	123	101	91.8	62.7	46.1	22.1	28.7

O=c1c(=NNc2nnn[nH]2)c(=O)c2ccccc12
cell viability [%]
Conditions	0.00617 µM	0.0185 µM	0.0556 µM	0.166667 µM	0.5 µM	1.5 µM	4.5 µM	13.5 µM
[1]	111	134	108	109	100	6.85	-3.59	-9.34
[2]	114	133	102	96.4	89.2	1.91	-2.74	-6.89
[3]	123	108	105	110	99.8	-0.871	-0.369	-6.58
[4]	112	109	107	113	99.9	-4.87	-0.683	-9.39

O=C(/C=C/c1cccc(S(=O)(=O)Nc2ccccc2)c1)NO [RLM 2-89]
cell viability [%]
Conditions	0.000617 µM	0.00185 µM	0.00556 µM	0.0167 µM	0.05 µM	0.15 µM	0.45 µM	1.35 µM
[1]	130	115	116	113	114	52.6	20.5	17.4
[2]	110	96.3	118	106	125	82.3	28.8	20.7
[3]	120	103	116	121	128	77.7	32.4	28.9
[4]	121	109	87.9	125	123	83.5	38.1	19.1

Cn1nc(-c2ccccn2)nc2c(=O)n(C)c(=O)nc1-2
cell viability [%]
Conditions	0.00617 µM	0.0185 µM	0.0556 µM	0.166667 µM	0.5 µM	1.5 µM	4.5 µM	13.5 µM
[1]	153	70.2	125	132	135	81.7	-6.25	0.0591
[2]	135	102	104	124	132	84.5	-4.38	-0.281
[3]	117	94.9	119	126	107	72.9	-7.67	-1.39
[4]	141	92.9	114	109	118	74.2	-7.19	0.999

CC1(C)CC(=O)C2=C(C1)NC(=S)NC2c1cccc(O)c1 (stereo not given) [Dimethylenastron]
cell viability [%]
Conditions	0.00617 µM	0.0185 µM	0.0556 µM	0.166667 µM	0.5 µM	1.5 µM	4.5 µM	13.5 µM
[1]	113	126	115	102	70.9	50.1	42.5	33.8
[2]	107	130	117	104	92.3	79.2	73.7	71.3
[3]	101	119	102	110	108	94.4	103	86.2
[4]	118	92.6	106	105	93.9	81.3	62.2	61.7

CC#CC(=O)Nc1ccc2ncnc(Nc3cccc(Br)c3)c2c1
cell viability [%]
Conditions	0.00617 µM	0.0185 µM	0.0556 µM	0.166667 µM	0.5 µM	1.5 µM	4.5 µM	13.5 µM
[1]	94	95.5	79.5	63.3	40.9	21.1	14.8	12.3
[2]	99.6	85	101	84	84.5	44.6	30.3	33.4
[3]	95.8	105	108	76.6	65.5	38.7	28.4	18.3
[4]	81.6	98.5	106	73.9	50.7	22.7	13.5	4.04

CN(C)C/C=C/C(=O)Nc1cc2c(Nc3ccc(F)c(Cl)c3)ncnc2cc1O[C@H]1CCOC1 [Afatinib (BIBW2992)]
cell viability [%]
Conditions	0.00617 µM	0.0185 µM	0.0556 µM	0.166667 µM	0.5 µM	1.5 µM	4.5 µM	13.5 µM
[1]	102	58.8	29	19	24.5	18.8	4.12	1.43
[2]	112	89.2	72.7	39.8	43.4	33.4	30.8	5.92
[3]	105	84.4	50.4	34	31.7	31.5	24	6.87
[4]	98.9	81.1	46.3	18.2	13.9	18.8	5.93	1.47

COc1cc2ncnc(Nc3cccc(Cl)c3)c2cc1OC [AG-1478]
cell viability [%]
Conditions	0.00617 µM	0.0185 µM	0.0556 µM	0.166667 µM	0.5 µM	1.5 µM	4.5 µM	13.5 µM
[1]	117	115	106	109	54.7	39.2	32.7	28.9
[2]	99.4	105	108	114	81	49.2	40.2	34
[3]	125	105	103	117	83.2	63.5	53.2	46.9
[4]	119	110	104	128	89.3	68.1	38	32.3

C=CC(=O)N1CCC[C@@H](n2nc(-c3ccc(Oc4ccccc4)cc3)c3c(N)ncnc32)C1
cell viability [%]
Conditions	0.00617 µM	0.0185 µM	0.0556 µM	0.166667 µM	0.5 µM	1.5 µM	4.5 µM	13.5 µM
[1]	112	123	71.6	37.3	26.6	23.2	28.6	14
[2]	103	124	83.4	51.2	32.3	29.5	30	17.3
[3]	120	94.2	95.2	65.1	38.9	36.7	34.5	24.5
[4]	114	85	79.7	51.3	22.6	20.4	21.4	12.3

COc1cccc2c1C(=O)c1c(O)c3c(c(O)c1C2=O)C[C@@](O)(C(=O)CO)C[C@@H]3O[C@H]1C[C@H](N)[C@@H](O)[C@H](C)O1.Cl
cell viability [%]
Conditions	0.00617 µM	0.0185 µM	0.0556 µM	0.166667 µM	0.5 µM	1.5 µM	4.5 µM	13.5 µM
[1]	127	96.8	94.5	66.7	60.6	-2.32	-3.85	-11.8
[2]	116	105	107	79.4	68.9	22.8	-4.77	-10.2
[3]	124	110	96.2	81.9	63.8	19.3	5.78	-4.2
[4]	118	97.7	89.8	67.5	57.2	-4.01	-5.27	-4.94

COCCn1c2c([n+](Cc3cnccn3)c1C)C(=O)c1ccccc1C2=O.[Br-] [YM155]
cell viability [%]
Conditions	0.00617 µM	0.0185 µM	0.0556 µM	0.166667 µM	0.5 µM	1.5 µM	4.5 µM	13.5 µM
[1]	106	104	109	80.8	38.4	6.92	1.97	-9.67
[2]	106	87.2	111	91.9	42.4	4.91	-0.0383	-10.8
[3]	111	95.3	105	89.3	22	5.85	4.15	-5.27
[4]	107	91.5	86.1	32.4	7.29	-1.02	5.5	-4.07

COc1cccc2c1C(=O)c1c(O)c3c(c(O)c1C2=O)C[C@@](O)(C(=O)CO)C[C@@H]3O[C@H]1C[C@H](N)[C@H](O)[C@H](C)O1.Cl
cell viability [%]
Conditions	0.00617 µM	0.0185 µM	0.0556 µM	0.166667 µM	0.5 µM	1.5 µM	4.5 µM	13.5 µM
[1]	106	112	94.2	95.5	61.2	32.2	1.1	-3.65
[2]	118	107	90.9	97.9	60.3	33.7	-0.292	-2.07
[3]	101	102	97.9	95.8	60.3	45	1.01	2.64
[4]	110	98	89.9	91.9	43.8	24.2	-1.02	1.84
